The values below are quoted from earlier work in patent US20200147085A1, “COMPOSITIONS AND METHODS FOR TREATMENT OF PSYCHIATRIC DISORDERS” (priority 2007, published 2020).

For series [1] the following is noted: parenterally administered SAM.
For a further series, the system named is healthy volunteers. The conditions noted are these: daily iv infusion for 7 days; not supine.
For series [2] the following is noted: healthy controls, single oral dose of 400 mg of SAM.
Series [3] relates to chronic renal failure patients. The conditions noted are these: 4 grams daily, with 5 mg folate and 50 mg pyridoxine daily; not fasting levels.
For series [4] the following is noted: rats, intraperitoneal.
Another series has as its system schizophrenic patients. The conditions noted are these: 10-20 grams/day.

Each structure is given as a SMILES string.

With `C[S+](CC[C@H](N)C(=O)O)C[C@H]1O[C@@H](n2cnc3c(N)ncnc32)[C@H](O)[C@@H]1O` (stereo partly drawn) [SAM, S-adenosylmethionine], in series [1], the “SAM levels in cerebral spinal fluid” value is given as “about 130 % of controls”. The “decrease in standing heart rate” value with healthy volunteers was 6 beats/minute. The “half-life of SAM” value in series [2] is 1.7 ± 0.3 h.
With `C[N+](C)(C)CC(=O)[O-]` [betaine, trimethylglycine], in series [3], the “decrease of post-methionine loading homocysteine levels” value is reported as 18%.
For `CSCC[C@H](N)C(=O)O` [methionine, L-methionine], the SAM in brain entry in series [4] is “about 130 % of controls”. Besides, the “schizophrenic patients with worsened psychosis” value in the series with schizophrenic patients was “about 40%”.
